From patent publication US10364216B2, “Alkenyl sulfate ester or salt thereof” (Kao Corporation, priority 2013, dated 2019)
Structures can show the parent of a compound that is named as a salt.

Key:
[1] = Sweetness adjusting action on sucrose, aspartame, sucralose, glycyrrhizin (simultaneous intake); format: in vivo, human; conditions: 5 mM, taken simultaneously with sweetener
Experimental: To seven examiners, four kinds of 10 mL aqueous sucrose standard solutions (2.5, 5.0, 7.5 and 10.0 wt %) were presented. The examiners kept each of the solutions in their mouth for 5 seconds or so, and then spat the solution out, and were asked to consider the sweetness intensity at that time (0 to 15) to be 2.5, 5, 7.5 and 10, respectively. Next, the examiners kept 10 mL aqueous solution (7.5 wt %) of sucrose in their mouth for 5 seconds or so without knowing the kind and the concentration of the sweetener, and then spat the solution out, and compared the sweetness intensity at that time with that of the aqueous sucrose standard solution, and evaluated the sweetness intensity with a number in a range of 0 to 15. In addition, after 30 seconds, the examiners kept 10 mL pure water in their mouth, and then spat the solution out, and compared the sweetness intensity felt at that time with that of the aqueous sucrose standard solution, and evaluated the sweetness intensity in the same manner. Subsequently, the examiners were presented with 10 mL aqueous sucrose solution containing 5 mM trans-3-octenyl sulfate (7.5 wt %), and kept it in their mouth for 5 seconds or so, and then spat the solution out, and compared the sweetness intensity at that time with the sweetness intensity of the aqueous sucrose standard solution, and evaluated the sweetness intensity in the same manner. In addition, immediately after that, the examiners kept 10 mL pure water in their mouth for 5 seconds or so, and then spat the solution out, and compared the sweetness intensity at that time with that of the aqueous sucrose standard solution, and evaluated the sweetness intensity in the same manner. In addition, after 30 seconds, the examiners kept 10 mL pure water in their mouth, and then spat the solution out, and compared the sweetness intensity felt at that time with that of the aqueous sucrose standard solution, and evaluated the sweetness intensity in the same manner.
To seven examiners, 4 kinds of 10 mL aqueous sucrose standard solutions (2.5, 5.0, 7.5 and 10.0 wt %) were presented. The examiners kept each of the solutions in their mouth for 5 seconds or so, and then spat the solution out, and were asked to consider the sweetness intensity at that time (0 to 15) to be 2.5, 5, 7.5 and 10, respectively. Next, the examiners kept 10 mL aqueous solution of aspartame (494 ppm) in their mouth for 5 seconds or so without knowing the kind and the concentration of the sweetener, and then spat the solution out, and compared the sweetness intensity at that time with that of the aqueous sucrose standard solution, and evaluated the sweetness intensity with a number in a range of 0 to 15. The concentration of aspartame was prepared to have the same sweetness intensity as that of the aqueous sucrose solution (7.5 wt %) in accordance with the reference (Schiffman, S. S. et al. Chemical senses, 1999, 24, 439-447.). In addition, after 30 seconds, the examiners kept 10 mL pure water in their mouth, and then spat the solution out, and compared the sweetness intensity felt at that time with that of the aqueous sucrose standard solution, and evaluated the sweetness intensity in the same manner. Subsequently, the examiners were presented with 10 mL aqueous solution of aspartame containing 5 mM trans-3-octenyl sulfate (494 ppm), and kept it in their mouth for 5 seconds or so, and then spat the solution out, and compared the sweetness intensity at that time with the sweetness intensity of the sucrose standard solution, and evaluated the sweetness intensity in the same manner. In addition, after 30 seconds, the examiners kept 10 mL pure water in their mouth, and then spat the solution out, and compared the sweetness intensity felt at that time with that of the aqueous sucrose standard solution, and evaluated the sweetness intensity in the same manner. […]

[2] = Action of reinforcing sweetness (previous intake of trans-3-octenyl sulfate); format: in vivo, human; conditions: 5 mM, 60 seconds before sucralose or glycyrrhizin 0.25 mM
Experimental: To six examiners, 4 kinds of 10 mL aqueous solutions of sucrose standard (2.5, 5.0, 7.5 and 10.0 wt %) were presented. The examiners kept each of the solutions in their mouth for 5 seconds or so, and then spat the solution out, and were asked to consider the sweetness intensity at that time (0 to 15) to be 2.5, 5, 7.5 and 10, respectively. Next, the examiners kept 10 mL aqueous solution of sucralose (0.25 mM) in their mouth for 5 seconds or so without knowing the kind and the concentration of the sweetener, and then spat the solution out, and compared the sweetness intensity at that time with that of the aqueous sucrose standard solution, and evaluated the sweetness intensity with a number in a range of 0 to 15. Subsequently, the examiners kept 10 mL solution of 5 mM trans-3-octenyl sulfate in advance in their mouth for 5 seconds or so in advance, and then spat the solution out, and after passage of 60 seconds, the examiners kept 10 mL aqueous solution of sucralose (0.25 mM) in their mouth for 5 seconds or so, and then spat the solution out, and compared the sweetness intensity at that time with that of the aqueous sucrose standard solution, and evaluated the sweetness intensity with a number in a range of 0 to 15.
To six examiners, 4 kinds of 10 mL aqueous sucrose standard solutions (2.5, 5.0, 7.5 and 10.0 wt %) were presented. The examiners kept each of the solutions in their mouth for 5 seconds or so, and then spat the solution out, and were asked to consider the sweetness intensity at that time (0 to 15) to be 2.5, 5, 7.5 and 10, respectively. Next, the examiners kept 10 mL aqueous solution of glycyrrhizin (0.25 mM) in their mouth for 5 seconds or so without knowing the kind and the concentration of the sweetener, and then spat the solution out, and compared the sweetness intensity at that time with that of the aqueous sucrose standard solution, and evaluated the sweetness intensity with a number in a range of 0 to 15. Subsequently, the examiners kept 10 mL solution of 5 mM trans-3-octenyl sulfate in their mouth for 5 seconds or so in advance, and then spat the solution out, and after passage of 60 seconds, the examiners kept 10 mL aqueous solution of glycyrrhizin (0.25 mM) in their mouth for 5 seconds or so, and then spat the solution out, and compared the sweetness intensity at that time with that of the aqueous sucrose standard solution, and evaluated the sweetness intensity with a number in a range of 0 to 15.

SMILES: CCCC/C=C/CCOS(=O)(=O)O [trans-3-octenyl sulfate]
- Effect on aftertaste of sweetness remaining in the mouth [1]: reinforces the aftertaste of sweetness remaining in the mouth
- Effect on first taste of sweetness immediately after taking sucrose, aspartame, sucralose or glycyrrhizin [1]: inhibits the first taste of sweetness
- Effect of previous intake on the sweetness of the sweetener [2]: effect of reinforcing the sweetness of the sweetener
